Laboratory results reported in patent US20020071842A1, “Soluble CD1 compositions and uses thereof” (priority 2000, published 2002).
Entries after “also recorded” stand apart in the source; their conditions may differ.

Legend:
Assay in all cases: Plate-bound mCD1d fusion protein hybridoma stimulation assay (IL-2 ELISA)
Type in all cases: cell-based, mouse
24.8.A hybridoma = conditions: for IL-2 response to mCD1d fusion protein pre-treated with purified or synthetic lipid: compared to untreated or buffer treated fusion protein; for IL-2 secretion: 24.8 A NKT hybridoma, plate-bound mCD1d-IgGFc2a fusion protein preincubated with lipid antigen
Method in brief: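 Protein A plates were loaded with 400-600 ng/well mCD1d fusion protein, then given lipid antigen (40:1 molar ratio to fusion protein unless specified) in PBS pH 7.2 for 24-48 h at 37 °C. After washing, 1×10^5 hybridoma cells/well were added for 16-20 h at 37 °C. Secreted IL-2 measured by sandwich ELISA against a murine IL-2 standard curve.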

14S.10.C hybridoma = conditions: 14S.10 C diverse TCR hybridoma; plate-bound mCD1d-IgGFc2a fusion protein preincubated with lipid antigen
Method in brief: (§1)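 Protein A plates loaded with 400-600 ng/well mCD1d fusion protein plus lipid antigen (default 40:1 molar ratio), 24-48 hr at 37 °C, washed; hybridomas added at 1×10^5 cells/well for 16-20 hr. Supernatant IL-2 quantified by sandwich ELISA against murine IL-2 standard curve.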

14S.15.A hybridoma = conditions: 14S.15.A diverse TCR hybridoma; plate-bound mCD1d-IgGFc2a fusion protein preincubated with lipid antigen
Method in brief: as §1

14S.6.A hybridoma = conditions: 14S.6.A diverse TCR hybridoma; plate-bound mCD1d-IgGFc2a fusion protein preincubated with lipid antigen
Method in brief: as §1

14S.7.N hybridoma = conditions: 14S.7.N diverse TCR hybridoma; plate-bound mCD1d-IgGFc2a fusion protein preincubated with lipid antigen
Method in brief: as §1

KT/22 hybridoma = conditions: KT/22 NKT hybridoma; plate-bound mCD1d-IgGFc2a fusion protein preincubated with lipid antigen
Method in brief: as §1

KT/23 hybridoma = conditions: KT/23 NKT hybridoma; plate-bound mCD1d-IgGFc2a fusion protein preincubated with lipid antigen
Method in brief: as §1

KT/7 hybridoma = conditions: KT/7 NKT hybridoma; plate-bound mCD1d-IgGFc2a fusion protein preincubated with lipid antigen
Method in brief: as §1

VII68 hybridoma = conditions: VII68 diverse TCR hybridoma; plate-bound mCD1d-IgGFc2a fusion protein preincubated with lipid antigen
Method in brief: as §1

VIII24 hybridoma = conditions: VIII24 diverse TCR hybridoma; plate-bound mCD1d-IgGFc2a fusion protein preincubated with lipid antigen
Method in brief: as §1

XV104 hybridoma = conditions: XV104 diverse TCR hybridoma; plate-bound mCD1d-IgGFc2a fusion protein preincubated with lipid antigen
Method in brief: as §1

reduction of IL-2 secretion by phospholipase treatment of the antigen (24.8.A hybridoma; PI treated with PLC or PLD prior to pre-incubation with the mCD1d fusion protein) | Molecule | IL-2 response to mCD1d fusion protein pre-treated with purified or synthetic lipid (24.8.A hybridoma; 24.8.A hybridoma) | IL-2 secretion (24.8.A hybridoma) | IL-2 secretion (14S.10.C hybridoma) | IL-2 secretion (14S.15.A hybridoma) | IL-2 secretion (14S.6.A hybridoma) | IL-2 secretion (14S.7.N hybridoma) | IL-2 secretion (KT/22 hybridoma) | IL-2 secretion (KT/23 hybridoma) | IL-2 secretion (KT/7 hybridoma) | IL-2 secretion (VII68 hybridoma) | IL-2 secretion (VIII24 hybridoma) | IL-2 secretion (XV104 hybridoma) | IL-2 produced in the presence of the 19G11 anti-mCD1d mAb (24.8.A hybridoma; 24.8.A hybridoma, representative experiment, 19G11 blocking antibody included) | mean IL-2 secreted (24.8.A hybridoma; 24.8.A hybridoma, representative experiment, mCD1d fusion protein pre-treated with antigen)
– | CCCCCCCCCCCCCCCCCCCCCCCCCC(=O)N[C@@H](CO[C@H]1O[C@H](CO)[C@H](O)[C@H](O)[C@H]1O)[C@H](O)[C@H](O)CCCCCCCCCCCCCC [α-GalCer, α-galactosylceramide] | only a slightly enhanced response; also recorded: little IL-2 was secreted | + (“+” indicates 50-250 pg/ml) | 0 (A “0” indicates a mean of less than 50 pg/ml IL-2 was secreted) | + (“+” indicates 50-250 pg/ml) | 0 (A “0” indicates a mean of less than 50 pg/ml IL-2 was secreted) | 0 (A “0” indicates a mean of less than 50 pg/ml IL-2 was secreted) | +++ (“+++” indicates greater than 1000 pg/ml IL-2) | +++ (“+++” indicates greater than 1000 pg/ml IL-2) | +++ (“+++” indicates greater than 1000 pg/ml IL-2) | 0 (A “0” indicates a mean of less than 50 pg/ml IL-2 was secreted) | 0 (A “0” indicates a mean of less than 50 pg/ml IL-2 was secreted) | 0 (A “0” indicates a mean of less than 50 pg/ml IL-2 was secreted) | – | –
approximately 70% | phosphatidylinositol [PI] | marked increase of IL-2 production; also recorded: significantly enhanced IL-2 release | +++ (“+++” indicates greater than 1000 pg/ml IL-2) | 0 (A “0” indicates a mean of less than 50 pg/ml IL-2 was secreted) | 0 (A “0” indicates a mean of less than 50 pg/ml IL-2 was secreted) | + (“+” indicates 50-250 pg/ml) | + (“+” indicates 50-250 pg/ml) | + (“+” indicates 50-250 pg/ml) | + (“+” indicates 50-250 pg/ml) | 0 (A “0” indicates a mean of less than 50 pg/ml IL-2 was secreted) | 0 (A “0” indicates a mean of less than 50 pg/ml IL-2 was secreted) | 0 (A “0” indicates a mean of less than 50 pg/ml IL-2 was secreted) | 0 (A “0” indicates a mean of less than 50 pg/ml IL-2 was secreted) | no detectable IL-2 | 4,746 pg/ml
– | unglycosylated ceramide | – | + (“+” indicates 50-250 pg/ml) | 0 (A “0” indicates a mean of less than 50 pg/ml IL-2 was secreted) | 0 (A “0” indicates a mean of less than 50 pg/ml IL-2 was secreted) | 0 (A “0” indicates a mean of less than 50 pg/ml IL-2 was secreted) | 0 (A “0” indicates a mean of less than 50 pg/ml IL-2 was secreted) | 0 (A “0” indicates a mean of less than 50 pg/ml IL-2 was secreted) | 0 (A “0” indicates a mean of less than 50 pg/ml IL-2 was secreted) | 0 (A “0” indicates a mean of less than 50 pg/ml IL-2 was secreted) | 0 (A “0” indicates a mean of less than 50 pg/ml IL-2 was secreted) | 0 (A “0” indicates a mean of less than 50 pg/ml IL-2 was secreted) | 0 (A “0” indicates a mean of less than 50 pg/ml IL-2 was secreted) | – | –
– | β-galactosylceramide [β-GalCer] | – | + (“+” indicates 50-250 pg/ml) | – | 0 (A “0” indicates a mean of less than 50 pg/ml IL-2 was secreted) | 0 (A “0” indicates a mean of less than 50 pg/ml IL-2 was secreted) | 0 (A “0” indicates a mean of less than 50 pg/ml IL-2 was secreted) | 0 (A “0” indicates a mean of less than 50 pg/ml IL-2 was secreted) | 0 (A “0” indicates a mean of less than 50 pg/ml IL-2 was secreted) | 0 (A “0” indicates a mean of less than 50 pg/ml IL-2 was secreted) | 0 (A “0” indicates a mean of less than 50 pg/ml IL-2 was secreted) | 0 (A “0” indicates a mean of less than 50 pg/ml IL-2 was secreted) | 0 (A “0” indicates a mean of less than 50 pg/ml IL-2 was secreted) | – | –
